According to ChEMBL document CHEMBL1127295, “Development of a model for the delta opioid receptor pharmacophore. 2. Conformationally restricted Phe3 replacements in the cyclic delta receptor selective tetrapeptide Tyr-c[D-Cys-Phe-D-Pen]OH (JOM-13)” (J Med Chem, 1994):

Experiments:
[1] = biological target: T1, Delta-type opioid receptor (Mus musculus, UniProt P32300); assay: Agonist activity was assessed in mouse vas deferens (MVD) smooth muscle bioassay; format: functional, tissue-based, Muscle tissue
[2] = biological target: T1, Delta-type opioid receptor; assay: Binding affinity for delta opioid receptor using [3H]DPDPE from mouse vas deferens
Mu-type opioid receptor [3] = biological target: T2, Mu-type opioid receptor (Cavia porcellus, UniProt P97266); assay: Binding affinity against mu opioid receptor using [3H]DAMGO in guinea pig ileum; format: tissue-based
Mu-type opioid receptor [4] = biological target: T2, Mu-type opioid receptor; assay: Agonist activity was assessed in an guinea pig ileum (GPI) smooth muscle bioassay; format: functional, tissue-based

T1 sequence (P32300 whole entry): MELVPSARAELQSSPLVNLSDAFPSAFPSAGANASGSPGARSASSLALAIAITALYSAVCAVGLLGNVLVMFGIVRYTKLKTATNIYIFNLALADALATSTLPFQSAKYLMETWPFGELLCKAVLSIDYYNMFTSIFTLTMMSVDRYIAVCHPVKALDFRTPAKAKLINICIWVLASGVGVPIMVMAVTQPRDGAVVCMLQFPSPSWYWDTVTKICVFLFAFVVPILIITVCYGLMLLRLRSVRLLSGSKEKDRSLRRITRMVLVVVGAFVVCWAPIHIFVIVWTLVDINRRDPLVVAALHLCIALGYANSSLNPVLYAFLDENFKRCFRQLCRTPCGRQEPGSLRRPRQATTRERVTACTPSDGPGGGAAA
T2 sequence (P97266 whole entry): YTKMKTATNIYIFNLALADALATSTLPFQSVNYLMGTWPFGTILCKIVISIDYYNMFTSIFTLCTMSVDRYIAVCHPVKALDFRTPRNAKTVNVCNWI

| SMILES | IC50 [1] [nM] | Ki [2] [nM] | Ki (Mu-type opioid receptor [3]) [nM] | IC50 (Mu-type opioid receptor [4]) [nM] |
| --- | --- | --- | --- | --- |
| C[C@@H](c1ccccc1)[C@H]1NC(=O)[C@@H](NC(=O)[C@@H](N)Cc2ccc(O)cc2)CSSC(C)(C)[C@@H](C(=O)O)NC1=O | 1110 | 237 | > 10000 | > 30000 |
| CC1(C)SSC[C@H](NC(=O)[C@@H](N)Cc2ccc(O)cc2)C(=O)N[C@H](Cc2ccccc2)C(=O)N[C@@H]1C(=O)O (stereo in doubt; 3) | 51.8 | 12.3 | – | – |
| CC1(C)SSC[C@H](NC(=O)[C@@H](N)Cc2ccc(O)cc2)C(=O)N[C@H](Cc2ccccc2)C(=O)N[C@@H]1C(=O)O (stereo in doubt; 4) | 9.72 | 4.8 | – | – |
| CC1(C)SSC[C@H](NC(=O)[C@@H](N)Cc2ccc(O)cc2)C(=O)N[C@H](Cc2ccccc2)C(=O)N[C@@H]1C(=O)O (stereo in doubt; 5) | 4.13 | 1.52 | – | – |
| CC1(C)SSC[C@H](NC(=O)[C@@H](N)Cc2ccc(O)cc2)C(=O)N[C@H](Cc2ccccc2)C(=O)N[C@@H]1C(=O)O (stereo in doubt; 6) | – | 70 | – | – |
